Here are results for 16 compounds from ChEMBL document CHEMBL5661943, “ASAP - In vitro antiviral effect” (2024).

The subject of one assay is Zika virus. Kind of assay: Functional CPE-based assay to measure dose dependent changes in antiviral-drug inhibitory efficacy against Zika virus MR766 in Vero E6 miRFP670 cells (cotreated with P-gp inhibitor, CP100356). Cells are treated with antiviral candidates that are serially diluted. EC50 is reported via analysis of MTS assay as a readout of CPE. The assay has been performed by KU Leuven. Type of assay: organism-based, Chlorocebus sabaeus, Vero C1008. The conditions noted are these: Zika virus; for EC90: P-gp concentration 500 nM, P-gp inhibitor CP100356.

For the next assay, the system named is dengue virus type 2. The assay is described as follows: Functional assay to measure dose dependent changes in antiviral-drug inhibitory efficacy against Dengue virus type 2 New Guinea C in Vero E6 miRFP670 cells (cotreated with P-gp inhibitor, CP100356). Cells are treated with antiviral candidates that are serially diluted, following infection, cells are fixed. EC50 is reported via analysis of fluorescence intensity using high-content imager. The …. Type of assay: organism-based, Chlorocebus sabaeus, Vero C1008. Conditions: for EC90: P-gp concentration 500 nM, P-gp inhibitor CP100356.

As for `O=C(O)Cc1c[nH]c2cc(-c3cc(Cl)cc(NC(=O)OCc4ccccc4)c3)ccc12`, the EC50 in the assay on Zika virus (Vero C1008) is over 50 µM; in the assay with dengue virus type 2 (Dengue virus, Vero C1008), 28.1 µM. Further, the EC90 in the assay with Zika virus (Vero C1008, Baseline response 0 %, Hill slope 0.295, Maximum measured 15.391 %, Maximum response 100 %, Minimum measured 1.73 %, R squared 0.19) was over 50 µM; with dengue virus type 2 (Dengue virus, Vero C1008, Baseline response 0 %, Hill slope -3.369, Maximum measured 96.537 %, Maximum response 100 %, Minimum measured 12.115 %, R squared 0.802) it was over 50 µM.
As for `O=C(Nc1cc(Cl)cc(-c2cnn(Cc3ccc(C(=O)O)cc3)c2)c1)OCc1ccccc1`, the EC50 with Zika virus (Vero C1008) was over 50 µM; in the assay with dengue virus type 2 (Dengue virus, Vero C1008) it was 25 µM. Moreover, the EC90 in the assay with Zika virus (Vero C1008, Baseline response 0 %, Hill slope 1.126, Maximum measured 43.56 %, Maximum response 100 %, Minimum measured -3.769 %, R squared 0.488) is over 50 µM; in the assay with dengue virus type 2 (Dengue virus, Vero C1008, Baseline response 0 %, Hill slope -21.178, Maximum measured 148.823 %, Maximum response 100 %, Minimum measured 10.822 %, R squared 0.564) it was 27.8 µM.
As to `FC(F)(F)Oc1cc(Cl)cc2c(Cc3ccc(-c4nnn[nH]4)cc3)c[nH]c12`, the EC50 in the assay with Zika virus (Vero C1008) worked out at 20.6 µM; with dengue virus type 2 (Dengue virus, Vero C1008) it was 11.9 µM. Further, the EC90 is over 25 µM in the assay with Zika virus (Vero C1008, Baseline response 0 %, Hill slope 5.381, Maximum measured 73.735 %, Maximum response 100 %, Minimum measured 0.486 %, R squared 0.994) and over 12.5 µM in the assay on dengue virus type 2 (Dengue virus, Vero C1008, Baseline response 0 %, Hill slope -33.999, Maximum measured 142.465 %, Maximum response 100 %, Minimum measured 16.781 %, R squared 0.605).
As for `Clc1cc(CNc2ccc3c(c2)CNC3)c2cn[nH]c2c1`, the concentration giving a half-maximal response (EC50) in the assay on Zika virus (Vero C1008) worked out at 17.9 µM; with dengue virus type 2 (Dengue virus, Vero C1008) it was 3.18 µM. The EC90 was over 25 µM in the assay with Zika virus (Vero C1008, Baseline response 0 %, Hill slope 3.353, Maximum measured 76.866 %, Maximum response 100 %, Minimum measured 0.884 %, R squared 0.96) and over 12.5 µM with dengue virus type 2 (Dengue virus, Vero C1008, Baseline response 0 %, Hill slope -0.438, Maximum measured 74.942 %, Maximum response 100 %, Minimum measured 39.794 %, R squared 0.558).
On to `COC(=O)c1cc(Br)cc2c(Cc3ccc(-c4nnn[nH]4)cc3)c[nH]c12`, for which the EC50 is over 50 µM in the assay on Zika virus (Vero C1008) and over 50 µM with dengue virus type 2 (Dengue virus, Vero C1008). For the same compound, the EC90 was over 50 µM in the assay with Zika virus (Vero C1008, Baseline response 0 %, Hill slope 0.557, Maximum measured 36.25 %, Maximum response 100 %, Minimum measured -2.518 %, R squared 0.117) and over 50 µM with dengue virus type 2 (Dengue virus, Vero C1008, Maximum measured 157.502 %, Minimum measured 51.504 %).
As for `CN(c1ccc2c(c1)CNC2)[C@H](C(=O)NCC(F)F)c1cc(Cl)cc(C2CC2)c1`, the EC50 is 0.859 µM in the assay with Zika virus (Vero C1008) and over 3.12 µM with dengue virus type 2 (Dengue virus, Vero C1008). Moreover, the EC90 in the assay on Zika virus (Vero C1008, Baseline response 0 %, EC90 CI (lower) 0.179 uM, EC90 CI (upper) 7.248 uM, Hill slope 7.833, Maximum measured 121.708 %, Maximum response 100 %, Minimum measured 8.623 %, R squared 0.915) is 1.14 µM; with dengue virus type 2 (Dengue virus, Vero C1008, Baseline response 0 %, Hill slope -0.632, Maximum measured 86.584 %, Maximum response 100 %, Minimum measured 48.476 %, R squared 0.311) it was over 3.12 µM.
For the compound `O=C(NCC(F)F)[C@H](Nc1cc2c(cc1Br)CNC2)c1cc(Cl)cc(C2CC2)c1`, the EC50 was 0.807 µM in the assay with Zika virus (Vero C1008) and over 50 µM with dengue virus type 2 (Dengue virus, Vero C1008). In addition, the EC90 was 0.907 µM in the assay with Zika virus (Vero C1008, Baseline response 0 %, Hill slope 18.882, Maximum measured 131.702 %, Maximum response 100 %, Minimum measured 12.911 %, R squared 0.859) and over 50 µM with dengue virus type 2 (Dengue virus, Vero C1008, Maximum measured 177.59 %, Minimum measured 74.788 %).
As to `O=C(Nc1ccc2c(c1)CN[C@H]2CC1CC1)c1cc(F)cc2[nH]ncc12`, the concentration giving a half-maximal response (EC50) was determined as 1.64 µM with Zika virus (Vero C1008) and 1.03 µM in the assay on dengue virus type 2 (Dengue virus, Vero C1008). Moreover, in the assay on Zika virus (Vero C1008, Baseline response 0 %, Hill slope 24.148, Maximum measured 124.993 %, Maximum response 100 %, Minimum measured 2.983 %, R squared 0.936), the EC90 was found to be 1.79 µM.
Take `O=C1Nc2ccc(C(=O)Nc3ccc4c(c3)CNC4)cc2C1=O`: the EC50 with Zika virus (Vero C1008) was over 50 µM; in the assay with dengue virus type 2 (Dengue virus, Vero C1008) it was over 50 µM. Besides, the EC90 with Zika virus (Vero C1008, Baseline response 0 %, Hill slope 1.301, Maximum measured 24.355 %, Maximum response 100 %, Minimum measured -0.531 %, R squared 0.91) is over 50 µM; in the assay with dengue virus type 2 (Dengue virus, Vero C1008, Maximum measured 138.129 %, Minimum measured 92.792 %), over 50 µM.
Consider `O=C(Nc1cc(Cl)cc(-c2ccc3[nH]c(C(=O)O)cc3c2)c1)OCc1ccccc1`, for which the EC50 with Zika virus (Vero C1008) is over 25 µM; in the assay with dengue virus type 2 (Dengue virus, Vero C1008), 24.9 µM; with dengue virus type 2 (vero c1008) it was over 12.5 µM. Moreover, the EC90 in the assay with Zika virus (Vero C1008, Baseline response 0 %, Hill slope 14.672, Maximum measured 32.342 %, Maximum response 100 %, Minimum measured -3.566 %, R squared 0.926) was over 25 µM; in the assay on dengue virus type 2 (Baseline response 0 %, EC90 CI (lower) 8.977 uM, EC90 CI (upper) 21.139 uM, Hill slope -3.716, Maximum measured 111.991 %, Maximum response 100 %, Minimum measured 0.586 %, R squared 0.931), 45 µM; with dengue virus type 2 (Baseline response 0 %, Hill slope -1.036, Maximum measured 105.577 %, Maximum response 100 %, Minimum measured 51.847 %, R squared 0.535), over 12.5 µM.
As to `CC(C)(C)OC(=O)N1Cc2ccc(N[C@H](C(=O)O)c3cc(Cl)cc4[nH]ncc34)cc2C1`, the EC50 with Zika virus (Vero C1008) was over 50 µM; in the assay on dengue virus type 2 (Dengue virus, Vero C1008), over 50 µM. The EC90 was over 50 µM in the assay with Zika virus (Vero C1008, Baseline response 0 %, Hill slope -0.446, Maximum measured 2.879 %, Maximum response 100 %, Minimum measured -1.465 %, R squared 0.442) and over 50 µM in the assay on dengue virus type 2 (Dengue virus, Vero C1008, Maximum measured 176.94 %, Minimum measured 116.898 %).
On to `N#CCc1cc(NC(=O)c2cc(F)cc3[nH]ncc23)cc2c1CNC2`, for which the 50% effective concentration (EC50) is 41.5 µM in the assay with Zika virus (Vero C1008) and over 50 µM with dengue virus type 2 (Dengue virus, Vero C1008). Besides, the concentration for an effect of 90% (EC90) in the assay on Zika virus (Vero C1008, Baseline response 0 %, Hill slope 1.989, Maximum measured 59.393 %, Maximum response 100 %, Minimum measured -2.191 %, R squared 0.98) was over 50 µM; in the assay on dengue virus type 2 (Dengue virus, Vero C1008, Maximum measured 146.108 %, Minimum measured 103.208 %), over 50 µM.
As to `NCc1ccc(-c2csc3cc(C(=O)Nc4ccc5c(c4)CNC5)ccc23)cc1`, the EC50 with Zika virus (Vero C1008) was over 50 µM; in the assay with dengue virus type 2 (Dengue virus, Vero C1008) it was over 6.25 µM. Also, the EC90 is over 50 µM in the assay on Zika virus (Vero C1008, Maximum measured 6.518 %, Minimum measured 2.745 %) and over 6.25 µM with dengue virus type 2 (Dengue virus, Vero C1008, Baseline response 0 %, Hill slope -0.794, Maximum measured 120.176 %, Maximum response 100 %, Minimum measured 78.099 %, R squared 0.152).
On to `O=C(NCC(F)F)[C@H](Nc1cnc2c(c1)CNC2)c1cc(Cl)cc(C2CC2)c1`, for which the EC50 in the assay with Zika virus (Vero C1008) was 0.828 µM; in the assay with dengue virus type 2 (Dengue virus, Vero C1008), over 50 µM. Also, the EC90 with Zika virus (Vero C1008, Baseline response 0 %, EC90 CI (lower) 1.299 uM, EC90 CI (upper) 2.383 uM, Hill slope 2.915, Maximum measured 110.454 %, Maximum response 100 %, Minimum measured 12.588 %, R squared 0.958) is 1.76 µM; in the assay with dengue virus type 2 (Dengue virus, Vero C1008, Maximum measured 147.541 %, Minimum measured 99.767 %), over 50 µM.
With `O=C(Nc1ccc2c(c1)CNC2)c1cc(Br)cc2c1nc1n2CCCC1`, the 50% effective concentration (EC50) is over 50 µM with Zika virus (Vero C1008) and over 50 µM in the assay on dengue virus type 2 (Dengue virus, Vero C1008). For the same compound, the EC90 in the assay with Zika virus (Vero C1008, Maximum measured -3.355 %, Minimum measured -6.068 %) is over 50 µM; with dengue virus type 2 (Dengue virus, Vero C1008, Maximum measured 143.517 %, Minimum measured 80.126 %), over 50 µM.
As to `C[C@H]1C(=O)Nc2ccc(C(=O)Nc3ccc4c(c3)CNC4)cc21`, the EC50 was over 50 µM in the assay on Zika virus (Vero C1008) and over 50 µM with dengue virus type 2 (Dengue virus, Vero C1008). The EC90 was over 50 µM in the assay with Zika virus (Vero C1008, Maximum measured 0.465 %, Minimum measured -1.56 %) and over 50 µM in the assay with dengue virus type 2 (Dengue virus, Vero C1008, Maximum measured 179.475 %, Minimum measured 83.637 %).
